ChEMBL document CHEMBL3822440, “Semi-synthesis and antiproliferative evaluation of PEGylated pentacyclic triterpenes” (Eur J Med Chem, 2016)
pIC50: −log10 of the molar value.

Columns and labels:
HepG2 [1] = assay: Potency index, ratio of maslinic acid IC50 to compound IC50 for human HepG2 cells; assay type: functional
HepG2 [2] = assay: Cytotoxicity against human HepG2 cells assessed as growth inhibition after 72 hrs by MTT assay; assay type: functional, cell-based; conditions: HepG2, 72 h
HT-29 [3] = assay: Potency index, ratio of maslinic acid IC50 to compound IC50 for human HT-29 cells; assay type: functional
B16-F10 [4] = assay: Potency index, ratio of maslinic acid IC50 to compound IC50 for mouse B16F10 cells; assay type: functional
[5] = Cytotoxicity against mouse B16F10 cells assessed as growth inhibition after 72 hrs by MTT assay; assay type: functional, cell-based; conditions: B16-F10, 72 h
HT-29 [6] = assay: Cytotoxicity against human HT-29 cells assessed as growth inhibition after 72 hrs by MTT assay; assay type: functional, cell-based; conditions: HT-29, 72 h
HT-29 [7] = assay: Potency index, ratio of oleanolic acid IC50 to compound IC50 for human HT-29 cells; assay type: functional
HepG2 [8] = assay: Potency index, ratio of oleanolic acid IC50 to compound IC50 for human HepG2 cells; assay type: functional
B16-F10 [9] = assay: Potency index, ratio of oleanolic acid IC50 to compound IC50 for mouse B16F10 cells; assay type: functional

Row | SMILES | Ratio IC50 (HepG2 [1]) | pIC50 (HepG2 [2]) | Ratio IC50 (HT-29 [3]) | Ratio IC50 (B16-F10 [4]) | pIC50 [5] | pIC50 (HT-29 [6]) | Ratio IC50 (HT-29 [7]) | Ratio IC50 (HepG2 [8]) | Ratio IC50 (B16-F10 [9])
1 | CC(=O)O[C@@H]1C[C@]2(C)[C@H]3CC=C4[C@@H]5CC(C)(C)CC[C@]5(C(=O)NCCCOCCOCCOCCCN)CC[C@@]4(C)[C@]3(C)CC[C@H]2C(C)(C)[C@H]1OC(C)=O | 0.6 | 3.75 | 0.2 | 0.3 | 3.98 | 3.88 | – | – | –
2 | CC1(C)CC[C@]2(C(=O)NCCCOCCOCCOCCCNC(=O)[C@]34CCC(C)(C)C[C@H]3C3=CC[C@@H]5[C@@]6(C)CC[C@H](O)C(C)(C)[C@@H]6CC[C@@]5(C)[C@]3(C)CC4)CC[C@]3(C)C(=CC[C@@H]4[C@@]5(C)CC[C@H](O)C(C)(C)[C@@H]5CC[C@]43C)[C@@H]2C1 | – | 4.18 | – | – | 3.91 | 4.07 | 5 | 3.2 | 0.9
3 | CC(=O)O[C@H]1CC[C@]2(C)[C@H]3CC=C4[C@@H]5CC(C)(C)CC[C@]5(C(=O)NCCCOCCOCCOCCCN)CC[C@@]4(C)[C@]3(C)CC[C@H]2C1(C)C | – | 4.16 | – | – | 3.70 | 3.86 | 3.1 | 3.1 | 0.5
4 | CC1(C)CC[C@]2(C(=O)O)CC[C@]3(C)C(=CC[C@@H]4[C@@]5(C)CC[C@H](O)C(C)(C)[C@@H]5CC[C@]43C)[C@@H]2C1 [OLEANOLIC_ACID] | – | 3.67 | – | – | – | 3.37 | – | – | –
5 | COCCOCCOCC(=O)O[C@H]1CC[C@]2(C)[C@H]3CC=C4[C@@H]5CC(C)(C)CC[C@]5(C(=O)OCc5ccccc5)CC[C@@]4(C)[C@]3(C)CC[C@H]2C1(C)C | – | 4.08 | – | – | 3.76 | 4.21 | 7 | 2.5 | 0.6
6 | CC1(C)CC[C@]2(C(=O)NCCCOCCOCCOCCCNC(=O)[C@]34CCC(C)(C)C[C@H]3C3=CC[C@@H]5[C@@]6(C)C[C@@H](O)[C@H](O)C(C)(C)[C@@H]6CC[C@@]5(C)[C@]3(C)CC4)CC[C@]3(C)C(=CC[C@@H]4[C@@]5(C)C[C@@H](O)[C@H](O)C(C)(C)[C@@H]5CC[C@]43C)[C@@H]2C1 | 1 | 4.01 | 0.4 | 0.3 | 3.93 | 4.08 | – | – | –
7 | CC1(C)CC[C@]2(C(=O)O)CC[C@]3(C)C(=CC[C@@H]4[C@@]5(C)C[C@@H](O)[C@H](O)C(C)(C)[C@@H]5CC[C@]43C)[C@@H]2C1 [MASLINIC ACID] | – | 4.00 | – | – | – | 4.49 | – | – | –
8 | CC(=O)OC1CC[C@]2(C)[C@H]3CC=C4[C@@H]5CC(C)(C)CC[C@]5(C(=O)NCCCOCCOCCOCCCNC(=O)[C@]56CCC(C)(C)C[C@H]5C5=CC[C@@H]7[C@@]8(C)CC[C@H](OC(C)=O)C(C)(C)[C@@H]8CC[C@@]7(C)[C@]5(C)CC6)CC[C@@]4(C)[C@]3(C)CC[C@H]2C1(C)C (single isomer, unassigned) | – | 4.61 | – | – | 3.92 | 4.08 | 5.2 | 8.7 | 0.9
9 | CC(=O)O[C@@H]1C[C@]2(C)[C@H]3CC=C4[C@@H]5CC(C)(C)CC[C@]5(C(=O)NCCCOCCOCCOCCCNC(=O)[C@]56CCC(C)(C)C[C@H]5C5=CC[C@@H]7[C@@]8(C)C[C@@H](OC(C)=O)[C@H](OC(C)=O)C(C)(C)[C@@H]8CC[C@@]7(C)[C@]5(C)CC6)CC[C@@]4(C)[C@]3(C)CC[C@H]2C(C)(C)[C@H]1OC(C)=O | 0.9 | 3.95 | 0.5 | 0.3 | 3.97 | 4.19 | – | – | –
10 | CC(=O)O[C@@H]1C[C@]2(C)[C@H]3CC=C4[C@@H]5CC(C)(C)CC[C@]5(C(=O)O)CC[C@@]4(C)[C@]3(C)CC[C@H]2C(C)(C)[C@H]1OC(C)=O | 2 | 4.30 | 0.5 | 0.8 | – | 4.16 | – | – | –
11 | CC1(C)CC[C@]2(C(=O)OCc3ccccc3)CC[C@]3(C)C(=CC[C@@H]4[C@@]5(C)C[C@@H](O)[C@H](O)C(C)(C)[C@@H]5CC[C@]43C)[C@@H]2C1 [BENZYL MASLINATE] | 5.8 | 4.77 | 2.1 | 1 | 4.44 | 4.82 | – | – | –
12 | CC1(C)CC[C@]2(C(=O)OCc3ccccc3)CC[C@]3(C)C(=CC[C@@H]4[C@@]5(C)CC[C@H](O)C(C)(C)[C@@H]5CC[C@]43C)[C@@H]2C1 | – | 4.41 | – | – | – | 4.17 | 6.4 | 5.5 | 2
13 | CC(=O)O[C@H]1CC[C@]2(C)[C@H]3CC=C4[C@@H]5CC(C)(C)CC[C@]5(C(=O)O)CC[C@@]4(C)[C@]3(C)CC[C@H]2C1(C)C [ACETYL OLEANOLIC ACID] | – | 3.98 | – | – | – | 3.83 | 2.9 | 2 | 1.6
